Assay results taken from patent publication US8383581B2, “Short-chain peptides as parathyroid hormone (PTH) receptor agonist” (Cadila Healthcare Limited, priority 2009, dated 2013).
Where a SMILES comes first, the peptide text is derived from it. [ ]: non-standard residue; d: D form. ξ: configuration not given here. ξBip(2'-Et-4'-OMe) = CCc1cc(OC)ccc1-c1ccc(CC(N)C(=O)O)cc1; Arg(NO2) = N=C(NCCC[C@H](N)C(=O)O)N[N+](=O)[O-]; αMePhe(2,6-F2) = C[C@](N)(Cc1c(F)cccc1F)C(=O)O; ξαMePhe(2,6-F2) = CC(N)(Cc1c(F)cccc1F)C(=O)O; ξαMe(hhPhe) = CC(N)(CCCc1ccccc1)C(=O)O; ξαMePhe(2-F) = CC(N)(Cc1ccccc1F)C(=O)O; hhPhe = N[C@@H](CCCc1ccccc1)C(=O)O; hArg = N=C(N)NCCCC[C@H](N)C(=O)O; hCit = NC(=O)NCCCC[C@H](N)C(=O)O; Cit = NC(=O)NCCC[C@H](N)C(=O)O; ξαMeF = CC(N)(Cc1ccccc1)C(=O)O; ξαMeM = CSCCC(C)(N)C(=O)O; Nle = CCCC[C@H](N)C(=O)O; ξαMeP = CC1(C(=O)O)CCCN1; Ac5c = NC1(C(=O)O)CCCC1; Aib = CC(C)(N)C(=O)O

How the values were obtained:
Format in all cases: in vitro ADME
[1] = Stability of peptides in simulated gastric fluid (pH 1.5; HCl, NaCl and Pepsin); conditions: pH 1.5; for % degradation of peptides in 24 h when incubated with simulated gastric fluid: 2 μM; for half-life (t1/2) in simulated gastric fluid / half-life: simulated gi fluid
[2] = Stability of peptides in human liver microsomes; conditions: human, microsomes; for % degradation of peptides in 24 h when incubated with liver microsomes: 2 μM, pH 7.8
Method in brief: (§1)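 Peptides at 2 μM final incubated 0–24 h at 37 °C (50 mM triethanolamine-HCl, pH 7.8) in each matrix, matrix level set to degrade ~50% PTH(1-34) in 1 h; TFA-quenched, C18 HPLC at 206 nm with ESI-MS peak identification; percent degradation from peak areas at each time point.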

[3] = Stability of peptides in human plasma; conditions: human, plasma; for metabolised at 24 h, 2 μM: pH 7.8
Method in brief: as §1

[4] = Stability of peptides in simulated intestinal fluid (pH 7.5); conditions: pH 7.5; for half-life (t1/2) in simulated intestinal fluid / half-life: simulated gi fluid; for % degradation of peptides in 24 h when incubated with simulated intestinal fluid: 2 μM
Method in brief: as §1

Row | Structure (SMILES) | % degradation of peptides in 24 h when incubated with simulated gastric fluid [1] [%] | half-life (t1/2) in simulated gastric fluid [1] | half-life [2] [h] | % degradation of peptides in 24 h when incubated with liver microsomes [2] [%] | half-life [3] [h] | metabolised at 24 h, 2 μM [3] [%] | half-life (t1/2) in simulated intestinal fluid [4] | % degradation of peptides in 24 h when incubated with simulated intestinal fluid [4] [%] | half-life [1] [h] | half-life (t1/2) in liver microsomes [2] | half-life [4] [h] | half-life (t1/2) in human plasma [3]
1 | CCCC[C@H](NC(=O)[C@](C)(Cc1c(F)cccc1F)NC(=O)[C@H](CCC(N)=O)NC(=O)[C@@H](NC(=O)[C@H](CCC(=O)O)NC(=O)C(C)(C)NC(=O)[C@@H](NC(=O)C(C)(C)N)C(C)C)[C@@H](C)CC)C(=O)N[C@@H](Cc1c[nH]cn1)C(=O)N[C@@H](CCC(N)=O)C(=O)NC(C)(C)C(=O)NC(C)(C)C(=O)N[C@@H](CCCNC(N)=O)C(=O)N[C@@](C)(Cc1c(F)cccc1F)C(N)=O [Seq. ID. 550] (H-[Aib]V[Aib]EIQ[αMePhe(2,6-F2)][Nle]HQ[Aib][Aib][Cit][αMePhe(2,6-F2)]-NH2) | 13 | (8) h | 1 | 82 | 8 | 80 | (6) h | 50 |  |  |  | 
2 | CCCC[C@H](NC(=O)C(C)(Cc1ccccc1F)NC(=O)[C@H](CCC(N)=O)NC(=O)[C@@H](NC(=O)[C@H](CCC(=O)O)NC(=O)C1(NC(=O)[C@@H](NC(=O)C2(N)CCCC2)C(C)C)CCCC1)[C@@H](C)CC)C(=O)N[C@@H](Cc1c[nH]cn1)C(=O)N[C@@H](CCC(N)=O)C(=O)N[C@@H](CCCCNC(=N)N)C(=O)N1CCCC1(C)C(=O)N[C@@H](CCCCN)C(=O)NC(C)(Cc1c(F)cccc1F)C(N)=O (some centres unmarked) [Seq. ID. 100] (H-[Ac5c]V[Ac5c]EIQ[ξαMePhe(2-F)][Nle]HQ[hArg][ξαMeP]K[ξαMePhe(2,6-F2)]-NH2) | 49 |  | 2 | 82 | > 24 | 0 |  | 00 | 4 |  | > 24 | 
3 | CCCCC(C)(NC(=O)[C@H](CC(C)C)NC(=O)[C@H](CCC(N)=O)NC(=O)[C@@H](NC(=O)[C@H](CCC(=O)O)NC(=O)C(C)(C)NC(=O)[C@@H](NC(=O)C1(NC(=O)[C@@H](N)C(C)C)CCCC1)C(C)C)[C@@H](C)CC)C(=O)N[C@@H](Cc1c[nH]cn1)C(=O)N[C@@H](CCC(N)=O)C(=O)N[C@@H](CCCCNC(=N)N)C(=O)N[C@@H](C)C(=O)N[C@@H](CCCCNC(=N)N)C(=O)NC(Cc1ccc(-c2ccc(OC)cc2CC)cc1)C(=O)NC(C)(CCCc1ccccc1)C(N)=O (single isomer, unassigned) [Seq. ID. 925] | 100 |  | 0.5 | 100 |  | 78 |  | 100 | 0.5 |  | 0.5 | (9) h
4 | CCc1cc(OC)ccc1-c1ccc(CC(NC(=O)[C@H](CCCCN)NC(=O)[C@H](C)NC(=O)[C@H](CCCCNC(=N)N)NC(=O)[C@H](CCC(N)=O)NC(=O)[C@H](Cc2c[nH]cn2)NC(=O)[C@H](CCSC)NC(=O)[C@H](CC(C)C)NC(=O)[C@H](CCC(N)=O)NC(=O)[C@@H](NC(=O)[C@H](CCC(=O)O)NC(=O)C(C)(C)NC(=O)[C@@H](NC(=O)C2(N)CCCC2)C(C)C)[C@@H](C)CC)C(N)=O)cc1 (some centres unmarked) [Seq. ID. 650] (H-[Ac5c]V[Aib]EIQLMHQ[hArg]AK[ξBip(2'-Et-4'-OMe)]-NH2) | 15 | (8) h | 1 | 77 | 8 | 70 | (6) h | 41 |  |  |  | 
5 | CCc1cc(OC)ccc1-c1ccc(CC(NC(=O)[C@H](CCCCNC(=N)N)NC(=O)[C@H](C)NC(=O)[C@H](CCCCNC(=N)N)NC(=O)[C@H](CCC(N)=O)NC(=O)[C@H](Cc2c[nH]cn2)NC(=O)C(C)(CCSC)NC(=O)[C@H](CC(C)C)NC(=O)[C@H](CCC(N)=O)NC(=O)[C@@H](NC(=O)[C@H](CCC(=O)O)NC(=O)C(C)(C)NC(=O)[C@@H](NC(=O)C(C)(C)NC(=O)[C@@H](N)C(C)C)C(C)C)[C@@H](C)CC)C(=O)NC(C)(CCCc2ccccc2)C(N)=O)cc1 (some centres unmarked) [Seq. ID. 920] (H-V[Aib]V[Aib]EIQL[ξαMeM]HQ[hArg]A[hArg][ξBip(2'-Et-4'-OMe)][ξαMe(hhPhe)]-NH2) | 00 |  |  | 35 | > 24 | 0 |  | 00 | > 24 | (5) h | > 24 | 
6 | CCCC[C@H](NC(=O)C(C)(Cc1c(F)cccc1F)NC(=O)[C@H](CCC(N)=O)NC(=O)[C@@H](NC(=O)[C@H](CCC(=O)O)NC(=O)C(C)(C)NC(=O)[C@@H](NC(=O)C1(N)CCCC1)C(C)C)[C@@H](C)CC)C(=O)N[C@@H](Cc1c[nH]cn1)C(=O)N[C@@H](CCC(N)=O)C(=O)N[C@@H](CCCCNC(N)=O)C(=O)NC(C)(C)C(=O)NC(C)(C)C(=O)NC(C)(Cc1c(F)cccc1F)C(N)=O (some centres unmarked) [Seq. ID. 440] (H-[Ac5c]V[Aib]EIQ[ξαMePhe(2,6-F2)][Nle]HQ[hCit][Aib][Aib][ξαMePhe(2,6-F2)]-NH2) | 43 |  | 2 | 84 | > 24 | 0 |  | 00 | 4 |  | > 24 | 

Further lines, results first:

Row | % degradation of peptides in 24 h when incubated with simulated gastric fluid [1] [%] | half-life (t1/2) in simulated gastric fluid [1] | half-life [2] [h] | % degradation of peptides in 24 h when incubated with liver microsomes [2] [%] | half-life [3] [h] | metabolised at 24 h, 2 μM [3] [%] | half-life (t1/2) in simulated intestinal fluid [4] | % degradation of peptides in 24 h when incubated with simulated intestinal fluid [4] [%] | half-life [1] [h] | half-life (t1/2) in liver microsomes [2] | half-life [4] [h] | half-life (t1/2) in human plasma [3] | Structure (SMILES)
7 | 00 |  |  | 33 | > 24 | 0 |  | 00 | > 24 | (5) h | > 24 |  | CCCC[C@H](NC(=O)C(C)(Cc1ccccc1F)NC(=O)[C@H](CCC(N)=O)NC(=O)[C@@H](NC(=O)[C@H](CCC(=O)O)NC(=O)C1(NC(=O)[C@@H](NC(=O)C(C)(C)N)C(C)C)CCCC1)[C@@H](C)CC)C(=O)N[C@@H](Cc1c[nH]cn1)C(=O)N[C@@H](CCC(N)=O)C(=O)N[C@@H](CCCCNC(=N)N)C(=O)N1CCCC1(C)C(=O)N[C@@H](CCCCN)C(=O)NC(C)(Cc1ccccc1F)C(N)=O (some centres unmarked) [Seq. ID. 62] (H-[Aib]V[Ac5c]EIQ[ξαMePhe(2-F)][Nle]HQ[hArg][ξαMeP]K[ξαMePhe(2-F)]-NH2)
8 | 15 | (8) h | 1 | 77 | 8 | 70 | (6) h | 41 |  |  |  |  | CCCC[C@H](NC(=O)C(C)(Cc1c(F)cccc1F)NC(=O)[C@H](CCC(N)=O)NC(=O)[C@@H](NC(=O)[C@H](CCC(=O)O)NC(=O)C(C)(C)NC(=O)[C@@H](NC(=O)C1(N)CCCC1)C(C)C)[C@@H](C)CC)C(=O)N[C@@H](Cc1c[nH]cn1)C(=O)N[C@@H](CCC(N)=O)C(=O)N[C@@H](CCCCNC(=N)N)C(=O)NC(C)(C)C(=O)N[C@@H](CCCNC(=N)N[N+](=O)[O-])C(=O)NC(C)(Cc1ccccc1F)C(N)=O (some centres unmarked) [Seq. ID. 260] (H-[Ac5c]V[Aib]EIQ[ξαMePhe(2,6-F2)][Nle]HQ[hArg][Aib][Arg(NO2)][ξαMePhe(2-F)]-NH2)
9 | 00 |  |  | 32 | > 24 | 0 |  | 00 | > 24 | (5) h | > 24 |  | CC[C@H](C)[C@H](NC(=O)[C@H](CCC(=O)O)NC(=O)C(C)(C)NC(=O)[C@@H](NC(=O)C(C)(C)N)C(C)C)C(=O)N[C@@H](CCC(N)=O)C(=O)N[C@@H](CC(C)C)C(=O)NC(C)(CCSC)C(=O)N[C@@H](Cc1c[nH]cn1)C(=O)N[C@@H](CCC(N)=O)C(=O)N[C@@H](CCCCNC(=N)N)C(=O)N[C@@H](C)C(=O)N[C@@H](CCCCNC(=N)N)C(=O)NC(C)(Cc1ccccc1F)C(=O)N[C@@H](CCCc1ccccc1)C(N)=O (some centres unmarked) [Seq. ID. 930] (H-[Aib]V[Aib]EIQL[ξαMeM]HQ[hArg]A[hArg][ξαMePhe(2-F)][hhPhe]-NH2)
10 | 100 |  | 0.5 | 100 |  | 70 |  | 100 | 0.5 |  | 0.5 | (9) h | CCCC[C@H](NC(=O)[C@H](CC(C)C)NC(=O)[C@H](CCC(N)=O)NC(=O)[C@@H](NC(=O)[C@H](CCC(=O)O)NC(=O)C(C)(C)NC(=O)[C@@H](NC(=O)C(C)(C)N)C(C)C)[C@@H](C)CC)C(=O)N[C@@H](Cc1c[nH]cn1)C(=O)N[C@@H](CCC(N)=O)C(=O)N[C@@H](CCCCNC(=N)N)C(=O)NC(C)(C)C(=O)N[C@@H](CCCCN)C(=O)NC(C)(Cc1ccccc1)C(N)=O (some centres unmarked) [Seq. ID. 10] (H-[Aib]V[Aib]EIQL[Nle]HQ[hArg][Aib]K[ξαMeF]-NH2)
